From PMC6770517, “Insight into the Antifungal Mechanism of Action of Human RNase N-terminus Derived Peptides” (International Journal of Molecular Sciences, 2019)
In brackets after ≈: the same amount, converted by molar mass. Where no end group is shown, it is not given here.

What was measured:
C. albicans [1] = details: as previously reported; cited from earlier work
[2] = test system: C. albicans planktonic cells; format: cell-based, Candida albicans (ATCC 90028); details: 4 h
Method: Cell viability of C. albicans was assayed using the BacTiter-Glo™ Microbial Cell Viability kit (Promega), which measures the number of viable cells, by ATP quantification. ATP, as an indicator of metabolically active cells, is indirectly measured by a coupled luminescence detection assay. The luminescent signal is proportional to the amount of ATP required for the conversion of luciferin into oxyluciferin in the presence of luciferase. An overnight culture of C. albicans was used to inoculate fresh Sabouraud liquid culture, and logarithmic phase culture was grown to an OD592 of 0.2. RNase derived N-terminal peptides were added to 0.1 mL of cell culture at a final concentration from 0.025 to 20 μM. The C. albicans viability was followed after 4 h of incubation at 30 °C. 50 µL of incubation culture were mixed with 50 µL of BacTiter-Glo^TM reagent in a microtiter plate following the manufacturer instructions and incubated at room temperature for 10 min. Luminiscence was read on a Victor3 plate reader (PerkinElmer, Waltham, MA, USA) with a 1-s integration time. IC50 values were calculated by fitting the data to a dose-response curve.

C. albicans [3] = assay: Cell survival assay (Live/Dead kit); format: cell-based, Candida albicans (ATCC 90028); details: survival percentage at final incubation time (120 min), mean ± SEM
Method: C. albicans viability assay was performed using the Live⁄Dead® microbial viability kit as previously described. Candida strain was grown at 30 °C to ~5 × 10^6 cells/mL, centrifuged at 5000× g for 5 min and resuspended in a 0.85% NaCl solution, in accordance with the manufacturer instructions. C. albicans cell culture was stained using a SYTO®9/propidium iodide 1:1 mixture. SYTO9/propidium iodide staining allowed us to monitor both the candidal viability in planktonic cell cultures and within the biofilm, as the SYTO9 dye is able to permeate the cell membrane and stain the nucleic acid of viable cells; whereas, when the cell membrane is damaged, propidium iodide can diffuse into the cell and displace SYTO9. The method allows the labelling of intact viable cells and membrane compromised cells, which are labelled in green and red respectively, referred to as live and dead cells. The viability kinetics were monitored using a Cary Eclipse Spectrofluorimeter (Varian Inc., Palo Alto, CA, USA). Cell viability profiles were registered after adding from 1 to 5 µM of final peptide concentration. To calculate the cell viability, the fluorescence in the range of 510–540 nm and 620–650 nm were integrated to obtain the SYTO®9 (live cell) and the propidium iodide (dead cell) signals respectively. Then, the percentage of live bacteria was represented as a function of time.

in vitro = format: cell-based; details: human
Method: The peptide cytoxicity was evaluated using the human monocytic THP1 cell line. The assay was performed in 96-well cell culture flat-bottom plates (Costar; Appleton Woods) in triplicate. THP-1 cultures were induced to macrophages by adding 2 ng/mL of colony-stimulating factor (R&D Systems, Germany). Peptides were serially diluted from 50 to 0.1 µM and added to 5 × 10^5 cells/mL. After 48 h of incubation, the cells were washed twice with 1× PBS, and fresh RPMI-1640 complete medium was added. Plates were then treated with 30 μL of a freshly prepared 0.01% resazurin solution and incubated overnight at 37 °C. The following day the change in color was observed and the fluorescence intensity was measured (λex560 nm, λem590 nm). The 50% growth inhibitory concentration (GIC50) was determined based on the resazurin fluorescence signal.

[4] = test system: C. albicans cytoplasmic membrane; assay: Cell membrane depolarization assay (DiSC3); format: cell-based, Candida albicans (ATCC 90028); details: mean ± SEM; for Membrane Depolarization ED50: DiSC3 probe, peptide 0.1 to 5 µM, 50 min, 20 °C, Hepes-KOH pH 7.2; for Membrane Depolarization Depolmax: maximum fluorescence value at final incubation time with 2 µM peptide, DiSC3
Method: Membrane depolarization was assayed by monitoring the DiSC3 fluorescence intensity change in response to changes in transmembrane potential as described previously. C. albicans cells were grown at 30 °C to the mid-exponential (OD592~0.4) and resuspended in 5 mM Hepes-KOH, 20 mM glucose and 100 mM KCl at pH 7.2. DiSC3 was added to a final concentration of 0.4 µM. Changes in the fluorescence for alteration of the cell plasma membrane potential were continuously monitored at 20 °C at an excitation wavelength of 620 nm and an emission wavelength of 670 nm. When the dye uptake was maximal, as indicated by a stable reduction in the fluorescence as a result of quenching of the accumulated dye in the membrane interior, protein in 5 mM Hepes-KOH buffer at pH 7.2 was added at a final peptide concentration from 1 to 5 μM and incubated for 50 min, to calculate the ED50 concentration. Maximum depolarization was calculated when the fluorescence signal was fully stabilized, and the depolarization percentage was calculated taking Triton X-100 at 10% as a maximum reference value. The time required to reach a stabilized maximum fluorescence reading was recorded for each condition, and the time required to achieve half of total membrane depolarization was estimated from the nonlinear regression curve. All conditions were assayed in duplicate.

C. albicans [5] = assay: Minimum fungicidal concentration by CFU counting; format: cell-based, Candida albicans (ATCC 90028); details: for MFC100, PBS / MFC100, Sabouraud Broth: C. albicans ~2 × 10^5 cells/mL, CFU counting, peptides 20 to 0.1 µM, mean ± SEM, two independent experiments in triplicate; for MFC100, PBS: 4 h at 30 °C in PBS; for MFC100, Sabouraud Broth: 4 h at 30 °C in Sabouraud nutrient broth
Method: C. albicans was cultured overnight in Sabouraud Dextrose broth at 30 °C, sub-cultured the next day in fresh media and grown to an optical density of 0.4 at 592 nm (mid log-phase). Cells were washed twice and diluted to ~2 × 10^5 cells/mL. Peptides serially diluted were added to the cells from 20 to 0.1 µM final concentration. C. albicans was incubated at 30 °C during 4h in Sabouraud nutrient broth or PBS. Following, the samples were plated onto Sabouraud Petri dishes and incubated at 30 °C overnight. Antifungal activity was expressed as the MFC, defined as the lowest peptide concentration required for more than 99% of microorganism killing. MFC of each peptide was determined from two independent experiments performed in triplicate for each concentration.

[6] = test system: C. albicans cytoplasmic membrane; assay: Cell membrane permeabilization (Sytox Green uptake); format: cell-based, Candida albicans (ATCC 90028); details: mean ± SEM; for Membrane Permeabilization Max. Perm.: Sytox Green fluorescence, PBS, 50 min; for Membrane Permeabilization Perm.: maximum at final incubation time (50 min), referred to positive control 10 % Triton X-100, Sytox Green
Method: Membrane permeabilization was evaluated by using the Sytox® Green uptake assay. Sytox® Green is a cationic cyanine dye which is unable to cross the membrane. When cells’ plasma membrane integrity is compromised, the dye enters into the cell, binding to DNA and triggering a large increase of the fluorescence signal. For Sytox® Green assays, C. albicans cells were grown to mid-exponential growth phase at 30 °C and then centrifuged, washed, and resuspended in PBS. Cell suspensions in PBS (~2 × 10^6 cells/mL) were incubated with 1 μM Sytox® Green for 15 min in the dark prior to the influx assay. At 2 to 4 min after initiating data collection, proteins at 1 and 5 μM final concentration were added to the cell suspension, and the increase in Sytox® Green fluorescence was measured (excitation wavelength at 485 nm and emission at 520 nm) for 50 min in a Cary Eclipse spectrofluorimeter. Fungal cell lysis with 10% Triton X-100 was taken as the maximum fluorescence reference value.

C. albicans cells = assay: Minimal agglutination activity (MAC); format: cell-based, Candida albicans (ATCC 90028); details: for MAC (minimal agglutination concentration): C. albicans in PBS, 1 h at 30 °C, peptides 0.01 to 20 μM, visual inspection, mean ± SEM, three replicates of two independent experiments
Method: C. albicans cells were grown at 30 °C to an OD592 of 1.0, diluted 10 times, centrifuged at 5000× g for 2 min, and resuspended in 1× PBS. An aliquot of 100 μL of the cellular suspension was treated with increasing peptide concentrations (from 0.01 to 20 μM) and incubated at 30 °C for 1 h. The aggregation behavior was observed by visual inspection, and the agglutinating activity is expressed as the minimum agglutinating concentration of the sample tested, as previously described. Images were taken using a 50× stereoscope microscope.

C[C@@H]1[C@H](O)[C@@H](C)/C=C/C=C/C=C/C=C/C=C/C=C/C=C/[C@H](O[C@@H]2O[C@H](C)[C@@H](O)[C@H](N)[C@@H]2O)C[C@@H]2O[C@](O)(C[C@@H](O)C[C@@H](O)[C@H](O)CC[C@@H](O)C[C@@H](O)CC(=O)O[C@H]1C)C[C@H](O)[C@H]2C(=O)O [amphotericin B]
MFC taken as internal reference (C. albicans [1]): 0.5 µM (≈ 0.462 µg/mL)

KESRAKKFQRQHMDSDSSPSSSSTYSNQMMRRRNMTQGRSKPVNTFVH-NH2 [RN1]
IC50 [2]: 2100 ± 200 nM
Cell Survival (C. albicans [3]): 67 ± 1%
IC50 at 48 h (in vitro): > 50 µM
Membrane Depolarization ED50 [4]: 4.63 ± 0.70 µM
Membrane Depolarization Depolmax [4]: 65.2 ± 4.6 AU
MFC100, PBS (C. albicans [5]): 3.75 ± 0.30 µM
MFC100, Sabouraud Broth (C. albicans [5]): 3.75 ± 0.50 µM
Membrane Permeabilization Max. Perm. [6]: 26.1 ± 0.4 AU
Membrane Permeabilization Perm. [6]: 8.3 ± 0.4%
MAC (minimal agglutination concentration) (C. albicans cells): 1.80 ± 0.40 µM

KPKDMTSSQWFKTQHVQPSPQASNSAMSIINKYTERSKDLNTFLH-NH2 [RN8]
IC50 [2]: > 10000 nM
IC50 at 48 h (in vitro): > 50 µM

KPKGMTSSQWFKIQHMQPSPQASNSAMKNINKHTKRSKDLNTFLH-NH2 [RN7]
IC50 [2]: 450 ± 100 nM
IC50 at 48 h (in vitro): > 50 µM

KPPQFTKAQWFAIQHISLNPPKSTIAMKAINNYKWKSKNQNTFLK-NH2 [RN3K]
IC50 [2]: 2080 ± 270 nM
IC50 at 48 h (in vitro): > 50 µM

KPPQFTWAQWFETQHINMTSQQSTNAMQVINNYQRRSKNQNTFLL-NH2 [RN2]
IC50 [2]: > 20000 nM
IC50 at 48 h (in vitro): > 50 µM

QDGMYQRFLRQHVHPEETGGSDRYSNLMMQRRKMTLYHSKRFNTFIH-NH2 [RN4]
IC50 [2]: 1800 ± 300 nM
Cell Survival (C. albicans [3]): 65 ± 10%
IC50 at 48 h (in vitro): > 50 µM
Membrane Depolarization ED50 [4]: 3.58 ± 1.60 µM
Membrane Depolarization Depolmax [4]: 76.2 ± 4.8 AU
MFC100, PBS (C. albicans [5]): 3.75 ± 0.20 µM
MFC100, Sabouraud Broth (C. albicans [5]): 4.00 ± 0.50 µM
Membrane Permeabilization Max. Perm. [6]: 117 ± 2 AU
Membrane Permeabilization Perm. [6]: 38.7 ± 0.1%
MAC (minimal agglutination concentration) (C. albicans cells): 0.40 ± 0.10 µM

QDNSRYTHFLTQHYDAKPQGRDDRYSESIMRRRGLTSPSKDINTFIH-NH2 [RN5]
IC50 [2]: > 20000 nM
Cell Survival (C. albicans [3]): 39 ± 0.5%
IC50 at 48 h (in vitro): > 50 µM
Membrane Depolarization ED50 [4]: 1.51 ± 0.10 µM
Membrane Depolarization Depolmax [4]: 39.1 ± 5.1 AU
MFC100, PBS (C. albicans [5]): >20 µM
MFC100, Sabouraud Broth (C. albicans [5]): >20 µM
MFC (C. albicans [5]; medium not specified): inactive
Membrane Permeabilization Max. Perm. [6]: 66.5 ± 0.6 AU
Membrane Permeabilization Perm. [6]: 21.8 ± 0.4%
MAC (minimal agglutination concentration) (C. albicans cells): 1.80 ± 0.40 µM

RPPQFTRAQWFAIQHISLNPPRSTIAMRAINNYRWRSKNQNTFLR-NH2 [RN3]
IC50 [2]: 220 ± 50 nM
IC50 at 48 h (in vitro): > 50 µM

RPRGMTSSQWFRIQHMQPSPQASNSAMRNINRHTRRSRDLNTFLH-NH2 [RN7R]
IC50 [2]: 1620 ± 320 nM
IC50 at 48 h (in vitro): > 50 µM

WPKRLTKAHWFEIQHIQPSPLQSNRAMSGINNYTQHSKHQNTFLH-NH2 [RN6]
IC50 [2]: 1800 ± 200 nM
IC50 at 48 h (in vitro): > 50 µM

colistin
MFC taken as internal reference (C. albicans [1]): 0.25 µM

B1: hRNase7: human ribonuclease 7 of the RNaseA superfamily, parental protein of RN7 (protein, UniProt Q9H1E1 29-156, looked up)
Ribonuclease 7: KPKGMTSSQWFKIQHMQPSPQACNSAMKNINKHTKRCKDLNTFLHEPFSSVAATCQTPKIACKNGDKNCHQSHGAVSLTMCKLTSGKHPNCRYKEKRQNKSYVVACKPPQKKDSQQFHLVPVHLDRVL
agglutination of C. albicans by the parental hRNase (C. albicans cells; protein tested up to 20 μM): not
